Key:
Assay type in all cases: cell-based, human
PU-1 = test: Western blot of PU-1 in THP-1 nuclear extracts (Ets-2 DNA element beads)
Text: (§1) Of the transcription factors that have been analyzed, two factors, ICSBP and c-Rel, seem to be affected by Compound 1/Compound 2 treatment. ICSBP binds indirectly to the Ets-2 site. The primary NFκB trans-activator for IL-12 is the c-Rel/p50 heterodimer. Other dimers (p65/p50 and p50/p50) either lack activity or have inhibitory functions. Thus, c-Rel plays a role in IL-12 transcription as a result of both activation through NFκB and its interaction with ICSBP. […] The membranes were blocked with 5% milk in TBST buffer and then incubated with anti-c-Rel, anti-p65, anti-p50, anti-ICSBP or anti-PU-1 antibody (all the antibodies were purchased from Santa Cruz) at a dilution of 1:500 for 1 h at room temperature or overnight at 4° C. The membranes were washed and incubated with Horseradish Peroxidase-conjugated anti-rabbit IgG or anti-mouse IgG (Amersham, England) at a dilution of 1:2000 at room temperature for 1 h.
The transcription factor ICSBP binds to the Ets-2 element indirectly through binding to PU-1. Nuclear extracts were bound to Ets-2 DNA element beads, the beads isolated to separate bound from free protein, and the proteins analyzed on Western blots using antibodies to either ICSBP or PU-1. […] Eluted materials were separated by 10% SDS-PAGE and detected by immunoblot analysis using anti-ICSBP or anti-PU-1 antibody.

IL-12 p40 mRNA = test: Northern blot of IL-12 p40 mRNA in IFN-γ/SAC-stimulated THP-1 cells; conditions: THP-1, IFN-γ/SAC, 1 μM Compound 1
Description: Northern blot analysis was performed to examine the mRNA levels of IL-12 p35 and p40. Human PBMC and the human monocyte cell line THP-1 cells were stimulated with IFN-γ/SAC in the presence or absence of Compound 1. Human PBMC were isolated by centrifugation using Ficoll-Paque (Pharmacia Biotech, Uppsala, Sweden) and prepared in RPMI medium supplemented with 10% fetal calf serum (FCS), 100 U/ml penicillin, and 100 μg/ml streptomycin, in a 96-well plate with 5×10^5 cells/well. The cells were then primed with IFN-γ (100 U/ml) and followed by 0.01% SAC or 1 μg/ml LPS, in the presence of different concentrations of Compound 2 or other compounds. The test compounds were prepared in DMSO and the final DMSO concentration was adjusted to 0.25% in all cultures, including the compound-free control. Cell-free supernatants were taken 18 h later for the measurement of cytokines. The THP-1 cells were obtained from American Type Culture Collection (Manassas, Va.) and were cultured in RPMI 1640 (ATCC, Manassas, Va.), supplemented with 10% FCS (ATCC, Manassas, Va.), and 1% penicillin/Streptomycin (Gibco-BRL, New York, N.Y.). Total RNA was isolated and subjected to Northern blot analysis using IL-12 p35 and p40 cDNA probes. We first examined the kinetics of mRNA accumulation in cultures of hPBMC and THP-1 cells primed with IFN-γ followed by SAC stimulation in the presence or absence of 1 μM Compound 1.

c-Rel = test: Western blot of nuclear c-Rel in THP-1 cells
Text: In order to understand this changes, the subcellular localization of NF-κB proteins was investigated using western blot analysis.
as §1
THP-1 cells were suspended in 20 volumes of buffer A containing 10 mM KCl, 10 mM HEPES (pH 7.9), 1 mM MgCl2, 1 mM dithiothreitol (DTT), 0.1% Nonidet p40 (NP-40), and 0.5 mM phenylmethylsulfonyl fluoride (PMSF) and homogenized and centrifuged at 10,000 rpm at 4 C for 5 min. […]

p52 = test: Immunoblot of nuclear p52 in THP1 cells; conditions: THP1, IFNg+LPS, 100 nM, 6 h
Description: Rel B and p52 are two members of Rel family, which are preferentially complexed with each other. Like p50 and p65, p52 is found in virtually all cell types, whereas c-Rel and Rel B have only been detected in lymphoid tissues. To determine the effect of Compound 2 on p52 and Rel-B nuclear translocation, THP1 cells were stimulated with IFNg+LPS in either the presence or absence of 100 nM Compound 2, and the distribution of p52 and Rel-B was determined by immunoblotting of nuclear at 6 h post-treatment.
THP-1 cells were suspended in 20 volumes of buffer A containing 10 mM KCl, 10 mM HEPES (pH 7.9), 1 mM MgCl2, 1 mM dithiothreitol (DTT), 0.1% Nonidet p40 (NP-40), and 0.5 mM phenylmethylsulfonyl fluoride (PMSF) and homogenized and centrifuged at 10,000 rpm at 4 C for 5 min. Nuclear pellets were then suspended in buffer C containing 400 mM NaCl, 20 mM HEPES 9 pH 7.9), 15 mM MgCl2, 0.2 mM EDTA, 1 mM DTT, 25% glycerol, 1 mM PMSF, and 10 ug of leupeptin, 20 ug of pepstatin, and 10 ug/ml antipain, incubated for 30 min at 4 C, and centrifuged at 14,000 rpm for 20 min. The supernatants were dialyzed against buffer D containing 100 mM NaCl, 20 mM HEPES (pH 7.9), 20% glycerol, 1 mM PMSF, and 1 mM DTT.
The 10% SDS Polyacrylamide gels (Invitrogen) were transferred to Pure Nitrocellulose membrane (BioRed, Hercules, Calif.). […]

SMILES: C(=NNc1nc(OCCc2ccccn2)nc(N2CCOCC2)n1)c1c[nH]c2ccccc12 [Compound 1, N-(1H-indol-3-ylmethylene)-N′-[4-morpholin-4-yl-6-(2-pyridin-2-yl-ethoxy)-[1,3,5]triazin-2-yl]-hydrazine]
- levels of PU-1 (FIG. 6) (PU-1): unaffected
- expression of the p40 message (IL-12 p40 mRNA): significantly but incompletely reduced

SMILES: Cc1cccc(C=NNc2cc(N3CCOCC3)nc(OCCc3ccccn3)n2)c1 [Compound 2, N-(3-methyl-benzylidene)-N′-[6-morpholin-4-yl-2-(2-pyridin-2-yl-ethoxy)-pyrimidin-4-yl]-hydrazine]
- amount of c-Rel protein in nuclear (c-Rel; 500 nM, 3 hr, relative to untreated cells): decreased
- nuclear c-Rel level (FIG. 4) (c-Rel; THP1, IFN-γ plus LPS or IFN-γ plus SAC): significantly reduced
- nuclear p52 (FIG. 11) (p52): No significant difference

Reference: US9910031B2, “Compositions and methods for modulating c-Rel-dependent cytokine production” (Synta Pharmaceuticals Corporation, priority 2003, dated 2018)
